Results on six molecules are retold here after ChEMBL document CHEMBL1136471, “Fluorescence resonance energy transfer in a novel cyclodextrin-peptide conjugate for detecting steroid molecules” (Bioorg Med Chem Lett, 2003).

Test [1] is described as follows: Binding constant towards cyclodextrin conjugated peptide (with pyrene) at 25 degrees Centigrade.
Test [2] is described as follows: Sensitivity value towards cyclodextrin conjugated peptide (with pyrene) at 25 degrees Centigrade. Also on record: concentration or dose not given beside the values.

In the case of `C[C@H](CCC(=O)O)[C@H]1CC[C@H]2[C@@H]3C[C@H](O)[C@@H]4C[C@H](O)CC[C@]4(C)[C@H]3CC[C@]12C`, the Activity in test [1] was 210000 Kb M-1. The same molecule came in with a Change in sensitivity in test [2] of 0.4.

In the case of `C[C@H](CCC(=O)O)[C@H]1CC[C@H]2[C@@H]3CC[C@@H]4C[C@H](O)CCC4(C)[C@H]3C[C@H](O)[C@]12C` (single isomer, unassigned), the Activity in test [1] was 1100 Kb M-1. In addition, the Change in sensitivity in test [2] is 0.01.

Take `C[C@H](CCC(=O)O)[C@H]1CC[C@H]2[C@@H]3[C@H](O)C[C@@H]4C[C@H](O)CC[C@]4(C)[C@H]3C[C@H](O)[C@]12C`: the Activity in test [1] was 900 Kb M-1. The molecule further registered a Change in sensitivity in test [2] of 0.008.

Consider `C[C@H](CCC(=O)O)[C@H]1CC[C@H]2[C@@H]3[C@H](O)C[C@@H]4C[C@H](O)CC[C@]4(C)[C@H]3CC[C@]12C`, for which the Activity in test [1] was 33300 Kb M-1. The molecule also gave a Change in sensitivity in test [2] of 0.16.

Turning to `C[C@H](CCC(=O)O)[C@H]1CC[C@H]2[C@@H]3[C@@H](O)C[C@@H]4C[C@H](O)CC[C@]4(C)[C@H]3CC[C@]12C`, the Activity in test [1] was 173000 Kb M-1. In test [2], this molecule registered a Change in sensitivity of 0.4.

`C[C@H](CCC(=O)O)[C@H]1CC[C@H]2[C@@H]3CC[C@@H]4C[C@H](O)CC[C@]4(C)[C@H]3CC[C@]12C`: in test [1], the Activity was 439000 Kb M-1. Besides, the Change in sensitivity in test [2] stood at 0.45.
